In paper PMC10647589, “Heterogeneous Cellular Response of Primary and Metastatic Human Gastric Adenocarcinoma Cell Lines to Magnoflorine and Its Additive Interaction with Docetaxel” (International Journal of Molecular Sciences, 2023):

Columns and labels:
Test in all cases: MTT assay (viability; isobolographic analysis)
Type in all cases: cell-based
ACC-201 human GC cells = settings: ACC-201, 72 h incubation, mean ± SEM
Procedure: (§1) The human GC cells ACC-201, AGS, MKN-74 and NCI-N87 were placed in 96-well plates and allowed to adhere overnight. On the following day, the growth medium was removed, and the cells were treated with a series of tested MGN and DCT dilutions (2.0–75 and 0.0004–0.0404 µg/mL, respectively) for 72 h at 37 °C. […] Subsequently, a solution of MTT (5 mg/mL) was added to each well, and the cells were further incubated for 3 h at 37 °C. Tetrazolium salt was reduced to violet formazan derivatives via the succinate dehydrogenase of metabolically active cells. Insoluble formazan compounds formed inside the cells were extracted with a sodium dodecyl sulfate buffer (10% SDS in 0.01 N HCl) overnight to achieve a quantitative assessment of the amount produced. The absorbance of the samples was measured at 570 nm using Infinite M200 Pro microplate reader (Tecan, Männedorf, Switzerland). Cell viability was presented as a percentage relative to the untreated control cells.
(§2) Interactions between MGN and DCT analyzed after 72 h in four different GC cell lines (ACC-201, AGS, MKN-74 and NCI-N87) were characterized by means of an isobolographic analysis in the MTT assay. The percentage inhibition of cell viability accompanied by the specific concentrations of the tested substances (MGN and DCT) were transferred to the MS Excel spreadsheet, and the data were computed using the log–probit method. Next, the concentration–response effect graphs for the tested drugs (MGN and DCT) were drawn, and the IC50 values for every tested drug were calculated. The cooperative effect of two concentration–response lines was tested for the MGN and DCT combination, as previously described. The calculations of IC50 values (±SEM) were computed with formulas originally derived from the log–probit method and adapted to the in vitro conditions, as described earlier. The concentration–response lines for MGN and DCT were not parallel, and thus, the isobolographic additivity was illustrated graphically as an area bounded by two (upper and lower) lines of additivity. From the experimentally denoted IC50 values for MGN and DCT in the MTT assay, median additive inhibitory concentrations (IC50add) for the mixture (at the fixed ratio of 1:1 of MGN and DCT) in various cell lines (ACC-201, AGS, MKN-74 and NCI-N87) were calculated, as described previously. More information on isobolographic analysis can be found in the literature.

MKN-74 human GC cells = settings: MKN-74, 72 h incubation, mean ± SEM
Procedure: as §1, §2

AGS human GC cells = settings: 72 h incubation, mean ± SEM
Procedure: as §1, §2

NCI-N87 human GC cells = settings: NCI-N87, 72 h incubation, mean ± SEM
Procedure: as §1, §2

Q: How did the IC50 (ACC-201 human GC cells) turn out when `CC(=O)O[C@@]12CO[C@@H]1C[C@H](O)[C@@]1(C)C(=O)[C@H](O)C3=C(C)[C@@H](OC(=O)[C@H](O)[C@@H](NC(=O)OC(C)(C)C)c4ccccc4)C[C@@](O)([C@@H](OC(=O)c4ccccc4)[C@H]21)C3(C)C` [DCT, docetaxel] was run?
A: 2.8 ± 0.9 ng/mL

Q: What about the IC50 (MKN-74 human GC cells) of the same molecule?
A: 4.9 ± 2.1 ng/mL

Q: And the IC50 (AGS human GC cells)?
A: 2.6 ± 1.2 ng/mL

Q: And the IC50 (NCI-N87 human GC cells)?
A: 9 ± 2.9 ng/mL
